{"source": "paper PMC6218115", "about": "“In Vitro Potency and Preclinical Pharmacokinetic Comparison of All-D-Enantiomeric Peptides Developed for the Treatment of Alzheimer’s Disease” (Journal of Alzheimer's Disease, 2018)", "key": {"Aβ1-42": {"target": "T1, Aβ1-42 (Homo sapiens, UniProt P05067)", "T1 construct": "Lyophilized Aβ1 - 42 was dissolved in the respective peptide solution; purchased Isoloid GmbH (recombinant) or Bachem AG (synthetic)", "T1 sequence (P05067 672-713 limits assumed)": "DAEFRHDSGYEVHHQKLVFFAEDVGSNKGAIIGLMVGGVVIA", "assay": "Aβ aggregation assay (Thioflavin T)", "type": "biochemical", "details": "for molar excess with regard to Aβ for complete inhibition of Aβ1-42 fibril formation: 10 μM Aβ1-42, ThT; for reduction of the aggregation amplitude: equimolar concentration of peptide relative to Aβ1-42 (10 μM)", "protocol": "The potencies of ANK6, tANK6, cANK6r, and D3 to inhibit Aβ1 - 42 aggregation was examined using Thioflavin T (ThT). For this purpose, a buffer solution composed of 20 mM sodium phosphate buffer (pH 7.4) including 50 mM sodium chloride, and 5μM ThT was prepared. Afterwards, ANK6, tANK6, cANK6r, or D3 were diluted in this solution, respectively, to final peptide concentrations between 0.3125 and 80μM (ANK6 and tANK6:0.3125, 0.625, 1.25, 2.5, 5, 10, 20μM; cANK6r: 1.25, 2.5, 5, 10, 20, 40, 80μM; D3:1.17, 2.34, 4.7, 9.4, 18.8, 37.5, 75μM).\nThe buffer solution only served as negative control (blank). Lyophilized Aβ1 - 42 was dissolved in the respective peptide solution to a final concentration of 10μM. D-peptide solutions with the highest concentration of the respective D-peptide containing all components, except of Aβ1 - 42, served as negative controls. Aβ1 - 42 solved in buffer solution without D-peptide served as positive control. 100μL of each solution were transferred into the wells (triplicates) of 96 well microplates (PS, black, non-binding from Greiner Bio-One, Germany) and fluorescence signals (excitationλ 440 nm, emissionλ 490 nm) were measured in a Polarstar Optima plate reader (BMG, Germany) at 37°C every 20 min for 70 h. Afterwards, the respective blank curves were subtracted from each aggregation curve to exclude background fluorescence. […] The half maximal inhibitory concentration (IC50 value) was determined by plotting the percent inhibition against the respective D-peptides’ concentrations. Datasets were fitted by nonlinear regression (one site – specific binding with Hill slope, GraphPad Prism 5)."}, "[1]": {"assay": "Blood-brain barrier values (logBB, Kin, Vi, PS)", "type": "in vivo, C57Bl/6N mice", "details": "mice; for logBB, blood-brain equilibrium distribution: after i.v. administration 3.3 mg/kg, log(AUClast,br/AUClast,pl); for PS, permeability surface-area product / Vin / Kin, unidirectional influx rate constant: after i.v. administration; for PS, permeability surface-area product: CBF 1.07 mL/(g*min); for Vin: graphical determination (initial distribution volume in brain); for Kin, unidirectional influx rate constant: graphical determination, linear range 0-240 min (ANK6, cANK6r), 0-1440 min (tANK6)", "protocol": "To allow for direct comparison with other peptides, four universally applied BBB parameters were determined: the blood-brain equilibrium distribution (logBB), the […] influx rate constant (Kin), the initial distribution volume in brain (Vi), and the permeability surface-area product (PS). Based on data of the concentration-time profiles and pharmacokinetic parameters after i.v. administration, the BBB parameters were calculated with the help of the formulas listed in Table 2. Graphical determination of Kin and Vi was conducted by plotting the brain concentration to plasma concentration ratio at certain time points (Cb (t)/Cp (t) [mL/g]) on the y-axis against the exposure time (AUCp (t)/Cp (t) [min]) on the x-axis. The linear range for Kin and Vi determination was between 0 and 240 min for ANK6 and cANK6r (R^2: 0.9970, 0.9996) and between 0 and 1440 min for tANK6 (R^2: 0.9758). PS was calculated on the basis of a murine cerebral blood flow (CBF) of 1.07 mL/(g*min)."}, "[2]": {"assay": "Cell viability assay (MTT), Aβ1-42-induced cytotoxicity", "type": "cell-based, rat", "protocol": "The cells (10,000 cells/well) were incubated on collagen coated 96 well plates (Gibco, Life Technologies, # A11428-03) for growth in adherent cell culture (24 h, 37°C). Oligomeric Aβ was generated by incubating monomeric Aβ1 - 42 in sodium phosphate buffer (10 mM Na2HPO4/NaH2PO4, pH 7.4) at 21°C and 600 rpm agitation for 4.5 h. […] Absorbance readout was detected with a Polarstar Optima plate reader (BMG, Germany) at 570 and 660 nm. The relative cell viability [%] was calculated by normalizing the absorbance readout to the positive control (PC12 cells incubated with buffer). The IC50 value was determined by plotting the relative cell viability [%] against the respective D-peptides' concentrations. Datasets were fitted by nonlinear regression (logistic fit; OriginPro 9.0G)."}, "[3]": {"assay": "Free drug fraction (fu) in human plasma predicted from HSA and AGP affinities", "type": "in vitro ADME", "details": "predicted from affinities to HSA and AGP, at 0.01 μM peptide (blood level 4 h after oral administration)", "protocol": "Plasma protein binding (PPB) to human serum albumin (HSA) and α1-acid glycoprotein (AGP) of ANK6, tANK6, and cANK6r was analyzed according to the manufacturer’s protocol of TRANSIL^XL HSA and AGP binding kits (Sovicell GmbH, Germany). To cover a larger range of HSA and AGP concentrations, the bead concentrations in the kit were modified. For detection, a mixture of ^3H-labelled and non-labelled ANK6, tANK6, and cANK6r (final concentrations of 5μM) was added to different concentrations of HSA (7.4μM to 420μM, 10–12 different concentrations) or AGP beads (0.04μM to 3μM, 9–12 different concentrations). The amount of unbound ANK6, tANK6, and cANK6r (in %) to HSA or AGP, respectively, was determined by liquid scintillation counter (LSC) measurements. The dissociation constants (KD) as well as the free drug fractions (fu) in human plasma were calculated as described before. Calculations were based on peptide concentrations detected in the blood 4 h after single oral administration of 10 mg/kg: 0.01μM ANK6, 0.01μM tANK6, and 0.01μM cANK6r."}, "[4]": {"details": "10 μM Aβ1-42, 5 μM ThT, 20 mM sodium phosphate pH 7.4, 50 mM NaCl, 37°C, 70 h, triplicates, nonlinear regression, read-out: IC50, inhibition of Aβ1-42 aggregation into ThT-positive fibrils"}}, "note": "Like-named read-outs stand apart in the source and are kept apart here. Non-standard residues stand in square brackets, D forms with d. Residues, ends and D or L forms follow the SMILES beside them.", "data": [{"smiles": "CC[C@@H](C)[C@@H](NC(=O)[C@@H](CCCNC(=N)N)NC(=O)[C@@H](CCCCN)NC(=O)[C@H](N)CCCNC(=N)N)C(=O)N[C@H](CCCNC(=N)N)C(=O)N[C@H](CC(C)C)C(=O)N[C@@H](C(=O)N[C@@H](C(=O)N[C@H](CCCCN)C(=O)N[C@H](CCCCN)C(=O)N[C@H](CCCCN)C(=O)N[C@H](CCCNC(=N)N)C(N)=O)[C@H](C)O)C(C)C", "note": "[ANK6] (H-[dR][dK][dR][dI][dR][dL][dV][dT][dK][dK][dK][dR]-NH2; N-terminus assumed)", "values": [{"measurement": "IC50", "setting": "Aβ1-42", "value": 3.6, "unit": "µM"}, {"measurement": "molar excess with regard to Aβ for complete inhibition of Aβ1-42 fibril formation", "setting": "Aβ1-42", "value": "two-fold molar excess"}, {"measurement": "reduction of the aggregation amplitude", "setting": "Aβ1-42", "value": "more than 97%"}, {"measurement": "logBB, blood-brain equilibrium distribution", "setting": "[1]", "value": "–0.401"}, {"measurement": "PS, permeability surface-area product", "setting": "[1]", "value": 0.0003, "unit": "mL/g/min"}, {"measurement": "Vin", "setting": "[1]", "value": 0.0575, "unit": "mL/g"}, {"measurement": "Kin, unidirectional influx rate constant", "setting": "[1]", "value": 0.0003, "unit": "mL/g/min"}, {"measurement": "IC50", "setting": "[2]; PC12 cells, MTT, 1 μM oligomeric Aβ1-42, peptide 0.008-15 μM, overnight 37°C, quintuplicates, logistic fit, read-out: IC50, reduction of Aβ1-42-induced cytotoxicity (cell viability)", "value": 11.2, "unit": "µM"}, {"measurement": "overall fu in plasma (fraction unbound)", "setting": "[3]", "value": 1.43, "unit": "%"}]}, {"smiles": "CC[C@@H](C)[C@H]1NC(=O)[C@@H](CCCNC(=N)N)NC(=O)[C@@H](CCCCN)NC(=O)[C@@H](CCCNC(=N)N)NC(=O)[C@@H](CCCNC(=N)N)NC(=O)[C@@H](CCCNC(=N)N)NC(=O)[C@@H](CCCCN)NC(=O)[C@@H](CCCCN)NC(=O)[C@@H](CCCCN)NC(=O)[C@@H]([C@H](C)O)NC(=O)[C@@H](C(C)C)NC(=O)[C@@H](CC(C)C)NC(=O)[C@@H](CCCNC(=N)N)NC1=O", "note": "[cANK6r] (cyclo([dR][dK][dR][dI][dR][dL][dV][dT][dK][dK][dK][dR][dR]))", "values": [{"measurement": "IC50", "setting": "Aβ1-42; [4]", "value": 3.7, "unit": "µM"}, {"measurement": "molar excess with regard to Aβ for complete inhibition of Aβ1-42 fibril formation", "setting": "Aβ1-42", "value": "about eight-fold molar excess"}, {"measurement": "logBB, blood-brain equilibrium distribution", "setting": "[1]", "value": "–0.329"}, {"measurement": "PS, permeability surface-area product", "setting": "[1]", "value": 0.0003, "unit": "mL/g/min"}, {"measurement": "Vin", "setting": "[1]", "value": 0.0396, "unit": "mL/g"}, {"measurement": "Kin, unidirectional influx rate constant", "setting": "[1]", "value": 0.0003, "unit": "mL/g/min"}, {"measurement": "IC50", "setting": "[2]", "value": 14, "unit": "µM"}, {"measurement": "overall fu in plasma (fraction unbound)", "setting": "[3]", "value": 1.36, "unit": "%"}]}, {"smiles": "CC[C@@H](C)[C@@H](NC(=O)[C@@H](CCCNC(=N)N)NC(=O)[C@@H](CCCCN)NC(=O)[C@H](N)CCCNC(=N)N)C(=O)N[C@H](CCCNC(=N)N)C(=O)N[C@H](CC(C)C)C(=O)N[C@@H](C(=O)N[C@@H](C(=O)N[C@H](CCCCN)C(=O)N[C@H](CCCCN)C(=O)N[C@H](CCCCN)C(=O)N[C@H](CCCNC(=N)N)C(=O)N[C@H](CCCNC(=N)N)C(=O)N[C@H](CCCCN)C(=O)N[C@H](CCCNC(=N)N)C(=O)N[C@@H](C(=O)N[C@H](CCCNC(=N)N)C(=O)N[C@H](CC(C)C)C(=O)N[C@@H](C(=O)N[C@@H](C(=O)N[C@H](CCCCN)C(=O)N[C@H](CCCCN)C(=O)N[C@H](CCCCN)C(=O)N[C@H](CCCNC(=N)N)C(N)=O)[C@H](C)O)C(C)C)[C@H](C)CC)[C@H](C)O)C(C)C", "note": "[tANK6] (H-[dR][dK][dR][dI][dR][dL][dV][dT][dK][dK][dK][dR][dR][dK][dR][dI][dR][dL][dV][dT][dK][dK][dK][dR]-NH2; N-terminus assumed)", "values": [{"measurement": "IC50", "setting": "Aβ1-42; [4]", "value": 2.1, "unit": "µM"}, {"measurement": "molar excess with regard to Aβ for complete inhibition of Aβ1-42 fibril formation", "setting": "Aβ1-42", "value": "two-fold molar excess"}, {"measurement": "reduction of the aggregation amplitude", "setting": "Aβ1-42", "value": "more than 97%"}, {"measurement": "logBB, blood-brain equilibrium distribution", "setting": "[1]", "value": 0.335}, {"measurement": "PS, permeability surface-area product", "setting": "[1]", "value": 0.0016, "unit": "mL/g/min"}, {"measurement": "Vin", "setting": "[1]", "value": 0.5833, "unit": "mL/g"}, {"measurement": "Kin, unidirectional influx rate constant", "setting": "[1]", "value": 0.0016, "unit": "mL/g/min"}, {"measurement": "IC50", "setting": "[2]", "value": 4.4, "unit": "µM"}, {"measurement": "overall fu in plasma (fraction unbound)", "setting": "[3]", "value": 0.29, "unit": "%"}]}]}
